Earlier results, collected in patent US6642219B1, “Progestogen-antiprogestogen regimens” (Akzo Nobel N.V., priority 1997, dated 2003).
One block for each compound: values may come before it.

Key:
[1] = in vivo
progesterone receptor = biological target: T1, progesterone receptor (Homo sapiens, UniProt P06401)
T1 sequence (P06401 1-933): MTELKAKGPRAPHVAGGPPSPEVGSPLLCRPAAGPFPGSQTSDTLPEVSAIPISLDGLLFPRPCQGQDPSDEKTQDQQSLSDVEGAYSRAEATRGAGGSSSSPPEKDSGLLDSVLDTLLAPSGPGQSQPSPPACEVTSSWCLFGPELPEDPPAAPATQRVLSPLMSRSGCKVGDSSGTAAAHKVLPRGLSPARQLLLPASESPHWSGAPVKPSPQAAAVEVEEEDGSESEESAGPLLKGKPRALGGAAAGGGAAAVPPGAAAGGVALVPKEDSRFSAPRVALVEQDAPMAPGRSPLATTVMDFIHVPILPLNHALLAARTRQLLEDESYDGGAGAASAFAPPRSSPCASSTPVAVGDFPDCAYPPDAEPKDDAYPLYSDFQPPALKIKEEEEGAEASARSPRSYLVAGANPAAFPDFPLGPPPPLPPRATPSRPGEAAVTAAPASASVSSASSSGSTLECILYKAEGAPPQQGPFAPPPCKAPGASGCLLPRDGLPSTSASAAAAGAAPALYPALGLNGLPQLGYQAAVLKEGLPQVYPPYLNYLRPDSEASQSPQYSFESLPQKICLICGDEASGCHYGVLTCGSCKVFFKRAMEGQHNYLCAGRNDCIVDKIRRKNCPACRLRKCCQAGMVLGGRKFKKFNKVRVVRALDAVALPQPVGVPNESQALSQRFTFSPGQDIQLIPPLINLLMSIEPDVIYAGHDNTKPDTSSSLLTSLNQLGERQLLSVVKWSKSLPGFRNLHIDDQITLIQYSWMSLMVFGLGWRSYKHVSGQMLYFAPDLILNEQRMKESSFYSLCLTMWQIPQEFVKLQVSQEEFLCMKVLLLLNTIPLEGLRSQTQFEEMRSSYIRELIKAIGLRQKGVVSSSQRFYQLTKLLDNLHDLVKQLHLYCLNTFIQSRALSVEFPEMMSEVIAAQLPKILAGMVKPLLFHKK

[2] = based on practically applied doses

Structure (SMILES): C#CC1(O)CC[C@H]2[C@@H]3CCC4=CC(=O)CC[C@@H]4[C@H]3CC[C@@]21CC (stereo partly drawn) [Norgestrel]
progestogenic potency relative to levonorgestrel (progestogenic activity): about one-half

Structure (SMILES): C#C[C@]1(O)C=C[C@H]2[C@@H]3CCC4=CC(=O)CC[C@@H]4[C@H]3CC[C@@]21CC [Gestodene]
progestogenic potency relative to levonorgestrel, desogestrel and 3-keto-desogestrel (progestogenic activity; [2]): approximately 1.5 times

Structure (SMILES): C#C[C@]1(O)CC[C@H]2[C@@H]3CCC4=CCCC[C@@H]4[C@H]3C(=C)C[C@@]21CC [desogestrel, 13-ethyl-11-methylene-18,19-di-nor-17α-pregn-4en-20-yn-17-ol]
progestogenic activity, compared among each other (progestogenic activity; [2]): relatively equipotent

half-life [1]: ~20 h
Structure (SMILES): CC#C[C@]1(O)CC[C@H]2[C@@H]3CCC4=CC(=O)CCC4=C3[C@@H](c3ccc(N(C)C)cc3)C[C@@]21C [RU 486, (11β,17β)-11-[4-(demethylamino)-phenyl]-17-hydroxy-17-(1-propynyl)esta-4,9diene-3-one]

Structure (SMILES): C#C[C@]1(O)CC[C@H]2[C@@H]3CCC4=CC(=O)CC[C@@H]4[C@H]3C(=C)C[C@@]21CC [3-keto-desogestrel]
progestogenic activity, compared among each other (progestogenic activity; [2]): relatively equipotent

anti-progestogen potency compared with RU 486 (progesterone receptor): somewhat more potent
half-life [1]: 50 h
Structure (SMILES): C[C@@H]1C[C@@H]2C(=C3CCC(=O)C=C31)[C@@H](c1ccc(N(C)C)cc1)C[C@@]1(C)[C@H]2CC[C@@]12CCCO2 [Org 31710, (6α,11β,17β)-11-(4-dimethylaminophenyl)-6-methyl-4′,5′-dihydrospiro-[estra-4,9-diene-17,2′-(3′H)-furan]-3-one]

anti-progestogen potency compared with RU 486 (progesterone receptor): somewhat more potent
half-life [1]: approximately 15 hours
Structure (SMILES): CC(=O)c1ccc(C2CC3(C)C(CCC34OCC=C4C)C3CCC4=CC(=O)CCC4=C23)cc1 (stereo not drawn) [Org 33628, (11β,17α)-11-(4-acetylphenyl)-17,23-epoxy-19,24-dinorchola-4,9,20-trien-3-one]
